Data as given in patent US20220204473A1, “COMPOUND AS IRAK INHIBITOR” (SHANGHAI MEIYUE BIOTECH DEVELOPMENT CO., LTD., priority 2018, published 2022).
pIC50: −log10 of the molar value.

Legend:
human IRAK4 = target: T1, human IRAK4 (Homo sapiens, UniProt Q9NWZ3); test: IRAK4 MSA (Mobility-Shift Assay) at Km ATP; type: biochemical; settings: GST-IRAK4 1 nM, ATP 37 μM (Km); read-out: IC50 for inhibiting human IRAK4 kinase
T1 construct: purchased Cama (so in the source)
T1 sequence (Q9NWZ3 1-460): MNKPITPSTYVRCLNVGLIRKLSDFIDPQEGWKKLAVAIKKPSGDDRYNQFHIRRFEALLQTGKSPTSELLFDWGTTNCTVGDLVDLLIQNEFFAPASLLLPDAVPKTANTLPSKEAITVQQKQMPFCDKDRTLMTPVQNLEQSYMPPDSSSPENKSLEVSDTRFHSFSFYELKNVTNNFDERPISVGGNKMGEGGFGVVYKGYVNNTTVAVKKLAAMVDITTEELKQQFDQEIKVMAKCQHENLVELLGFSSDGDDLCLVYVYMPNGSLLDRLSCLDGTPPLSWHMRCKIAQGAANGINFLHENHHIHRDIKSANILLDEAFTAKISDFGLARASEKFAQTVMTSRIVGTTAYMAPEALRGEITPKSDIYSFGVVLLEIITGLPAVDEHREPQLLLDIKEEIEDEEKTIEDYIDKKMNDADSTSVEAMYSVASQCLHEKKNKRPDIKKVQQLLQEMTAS
Experimental: A recombinant fusion protein of N-terminal GST (glutathione-S-transferase) and human IRAK4 was used as enzyme (GST-IRAK4, kinase IRAK4 (Cama)) at a final concentration of 1 nM; ATP (Sigma) was at a final concentration of 37 μM; the substrates used for the kinase reaction were a 5-FAM (5-carboxyfluorescein)-labeled polypeptide (5-FAM-[…]-COOH) and a substrate peptide FAM-P8 (GL Biochem) at final concentrations of […].
In this assay, 500 μM solutions of the compounds were prepared in 100% DMSO, and serially 4-fold diluted to the 10th concentration gradient with 100% DMSO, followed by a 10-fold dilution in the compound buffer (50 mM HEPES. pH 7.5, 0.00015% Brij-35) to give intermediate dilutions of the compounds at a final concentration of 10 μM-0.04 nM containing 10% DMSO respectively, 5 μL of the dilutions were transferred into a black 384-well plate respectively.
IRAK4 was diluted to 2.5 nM in the kinase buffer (50 mM HEPES, pH 7.5, 0.00015% Brij-35, 2 mM DTT). 10 μL of the IRAK4 dilution was transferred to the 384-well plate and co-incubated with the compound for 10-15 min.
The substrate and ATP were diluted to 12.5 μM and 92.5 μM with reaction buffer (50 mM HEPES, pH 7.5, 0.00015% Brij-35, 10 mM MgCl2), respectively. 10 μL of the dilutions were transferred to a 384-well plate and incubated at 28° C. for 1 h respectively. The reaction was terminated by adding 25 μL of 50 mM EDTA to the 384-well plate.
The inhibition rates of IRAK4 by the compounds were calculated by measuring the rate of phosphorylated substrate using a Caliper EZ Reader (PerkinElmer) and the IC50 values were calculated by XL-fit software.

[1] = test system: TNF-α release in LPS-induced Balb/c female mice; test: Inhibition of TNF-α release in LPS-induced Balb/c female mice; type: in vivo, mouse; parameters: concentration or dose not given beside the values; settings: oral gavage 5 h before LPS induction, serum 1.5 h after stimulation
Experimental: In the normal control groups, the animals received an intraperitoneal injection of normal saline (10 mL/kg) and in the model groups, the animals received LPS stimulation (Sigma CAT #L2630, i.p., 10 mL/kg, 0.2 mg/kg). During the assay, to the test compounds, DMSO, Solutol and 10 mM PBS were sequentially added to prepare a solution or suspension of required concentration for administration. For the vehicle, DMSO, Solutol and 10 mM PBS were mixed in a volume ratio of 5:15:80. In each of the groups, the animals were administered through oral gavage (10 mL/kg) 5 h before LPS (or saline) stimulation at predetermined doses, and euthanized with CO2 at 1.5 h after the stimulation for cardiac blood collection. The whole blood was not anticoagulated, incubated in wet ice for 1.5 h, and centrifuged at 2000×g at 4° C. for 10 min to separate the serum. The serum was frozen at −80° C. for TNF-α assay. Quantification of the TNF-α was done with TNF-α ELISA kit according to the manufacturer's instruction.

[2] = Stability in human liver microsomes; type: in vitro ADME; settings: for half-life at 1 μM: pH 7.4, ∞ = no obvious metabolism found during assay, read-out: Stability test in liver microsomes t1/2, Human
Experimental: (§1) 1. Preparation of buffer C:
(§2) Buffer A: 1.0 L of 0.1 M monopotassium phosphate buffer (containing 1.0 mM EDTA);
(§3) Buffer A: 1.0 L of 0.1 M dipotassium phosphate buffer (containing 1.0 mM EDTA);
(§4) Buffer C: Buffer A was added to 700 mL of buffer B until pH reached 7.4.
(§5) The test compound and the reference were separately dissolved in DMSO to give 10 mM stocks.
(§6) 500 μM solution: 10 μL of 10 mM stock solution was added to 190 μL of acetonitrile;
(§7) 1.5 μM dosing solution (in liver microsome solution):
(§8) 18.75 μL of 20 mg/mL liver microsomes were added to 479.75 μL of buffer C, followed by 1.5 μL of 500 μM solution. The mixture was gently shaken to mix well.
(§9) NADPH was weighed, to which an appropriate amount of buffer C was added to prepare a 6 mM NADPH solution.
(§10) 5. 30 μL of 1.5 μM dosing solution was added to wells of a 96-well plate set for different time points (0 min, 5 min, 15 min, 30 min, 45 min) in duplicate.
(§11) 6. Preparation of 0 min samples: 135 μL of acetonitrile (containing internal standard) was added to the 0 min wells, followed by 15 μL of 6 mM NADPH solution.
(§12) 7. The 96-well plate containing 1.5 μM dosing solution and NADPH solution were preheated for 5 min in a water bath at 37° C.
(§13) 8. 15 μL of pre-heated 6 mM NADPH solution was added to wells set for 5 min, 15 min, 30 min and 45 min to start the reaction.
(§14) 9. At time points of 5 min, 15 min, 30 min and 45 min, the reaction was terminated by adding 135 μL of acetonitrile (containing internal standard). The mixtures were vortexed for 10 min and centrifuged at 5594×g for 15 min (Thermo Multifuge×3R).
(§15) 10. 50 μL of the supernatant was transferred to wells of a 96-well plate containing 50 μL of water. The samples were mixed and finally subjected to LC-MS/MS analysis.

[3] = Stability in rat liver microsomes; type: in vitro ADME; settings: for half-life at 1 μM: pH 7.4, ∞ = no obvious metabolism found during assay, read-out: Stability test in liver microsomes t1/2, Rat; for Stability test in liver microsomes t1/2, Rat: ∞ = no obvious metabolism found during assay
Experimental: as §1, §2, §3, §4, §5, §6, §7, §8, §9, §10, §11, §12, §13, §14, §15

[4] = Stability in mouse liver microsomes; type: in vitro ADME; settings: for half-life at 1 μM: pH 7.4, ∞ = no obvious metabolism found during assay, read-out: Stability test in liver microsomes t1/2, Mouse
Experimental: as §1, §2, §3, §4, §5, §6, §7, §8, §9, §10, §11, §12, §13, §14, §15

[5] = ∞ = no obvious metabolism found during assay

CN(C)c1cc2nn([C@H]3CC[C@H](O)CC3)cc2cc1NC(=O)c1cccc(C(F)(F)F)n1 [MY-004-153]
pIC50 (human IRAK4): 8.72
Inhibition rate of TNF-α [1]: 88.42%
Stability test in liver microsomes t1/2, Human [2, 5]: ∞
half-life at 1 μM [3]: 4.17 h
half-life at 1 μM [4]: 4.72 h

COc1cc2nn([C@H]3CC[C@@](C)(O)CC3)cc2cc1NC(=O)c1cccc(C(F)(F)F)n1 [MY-004-126-2]
pIC50 (human IRAK4): 9.00
Inhibition rate of TNF-α [1]: 94.11%
half-life at 1 μM [2]: 428 h
Stability test in liver microsomes t1/2, Rat [3]: ∞
half-life at 1 μM [4]: 13.4 h

COc1cc2nn([C@H]3CC[C@](C)(O)CC3)cc2cc1NC(=O)c1cccc(C(F)(F)F)n1 [MY-004-126-1]
pIC50 (human IRAK4): 8.57
Inhibition rate of TNF-α [1]: 94.43%
half-life at 1 μM [2]: 7.82 h
half-life at 1 μM [3]: 6.63 h
half-life at 1 μM [4]: 5.9 h

CN(C)c1cc2nn([C@H]3C[C@H](C(C)(C)O)C3)cc2cc1NC(=O)c1cccc(C(F)(F)F)n1 [MY-004-089]
pIC50 (human IRAK4): 8.17
Inhibition rate of TNF-α [1]: 91.27%
half-life at 1 μM [2]: 35.6 h
half-life at 1 μM [3]: 4.87 h
half-life at 1 μM [4]: 9.4 h

COc1cc2nn([C@H]3CC[C@H](O)CC3)cc2cc1NC(=O)c1cccc(C(F)(F)F)n1 [MY-004-127-1]
pIC50 (human IRAK4): 8.28
Inhibition rate of TNF-α [1]: 89.29%
half-life at 1 μM [2]: 12.8 h
half-life at 1 μM [3]: 5.1 h
half-life at 1 μM [4]: 768 h

CC(C)(O)c1cc2nn([C@H]3CC[C@](C)(O)CC3)cc2cc1NC(=O)c1cccc(C(C)(F)F)n1 [MY-004-165]
pIC50 (human IRAK4): 8.38
Inhibition rate of TNF-α [1]: 88.99%
half-life at 1 μM [2]: 53.9 h
Stability test in liver microsomes t1/2, Rat [3]: ∞
Stability test in liver microsomes t1/2, Mouse [4, 5]: ∞
